pKi: −log10 of the molar value.

One test deals with Cell division cycle 7-related protein kinase (Homo sapiens, UniProt O00311). Nature of the test: Inhibition of human Cdc7 using biotin-C6linker-TPSDSLIYDDGLS as substrate after 1 hr.
Chain of Cell division cycle 7-related protein kinase (O00311 whole entry): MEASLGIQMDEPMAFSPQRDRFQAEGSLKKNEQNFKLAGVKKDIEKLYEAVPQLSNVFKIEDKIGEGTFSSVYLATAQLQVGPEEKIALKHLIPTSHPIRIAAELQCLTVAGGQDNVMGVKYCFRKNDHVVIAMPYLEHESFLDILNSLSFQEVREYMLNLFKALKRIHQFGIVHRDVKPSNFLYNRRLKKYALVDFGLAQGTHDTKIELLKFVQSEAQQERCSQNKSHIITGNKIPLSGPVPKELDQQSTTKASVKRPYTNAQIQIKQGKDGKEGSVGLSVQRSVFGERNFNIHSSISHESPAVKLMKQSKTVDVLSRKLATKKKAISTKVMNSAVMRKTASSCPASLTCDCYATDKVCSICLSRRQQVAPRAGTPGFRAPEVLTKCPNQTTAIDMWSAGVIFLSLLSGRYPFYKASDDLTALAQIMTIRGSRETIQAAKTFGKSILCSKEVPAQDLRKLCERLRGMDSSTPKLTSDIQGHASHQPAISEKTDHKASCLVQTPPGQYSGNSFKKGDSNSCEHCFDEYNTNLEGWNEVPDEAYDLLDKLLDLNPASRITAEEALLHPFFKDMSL
`O=c1cc(-c2c[nH]c3ncccc23)cc(NC2CCCCC2)[nH]1` gave a pKi of 9.55.
On to `N#Cc1cc(-c2c[nH]c3ncccc23)cc(NC2CCCCC2)n1`, for which the pKi is 8.11.
Regarding `N#Cc1cc(-c2c[nH]c3ncccc23)cc(NCc2ccccc2)n1`, the pKi is 8.85.
Compound `N#Cc1cc(-c2c[nH]c3ncccc23)cc(N[C@H]2CC[C@H](O)CC2)n1` showed a negative logarithm of the Ki (pKi) of 8.26.
`NC(=O)c1cc(-c2c[nH]c3ncccc23)cc(N[C@H]2CC[C@H](O)CC2)n1` showed a pKi of 7.17.
In turn, `Clc1cc(-c2c[nH]c3ncccc23)cc(NC2CCCCC2)n1` gave a pKi of 9.05.
Still for that read-out and setting: to `c1cnc2[nH]cc(-c3ccnc(NC4CCCCC4)c3)c2c1` belongs 8.06; to `Cc1cc(-c2c[nH]c3ncccc23)cc(NC2CCCCC2)n1`, 7.89.
Regarding `Cc1cc(-c2c[nH]c3ncccc23)cc(NCc2ccccc2)n1`, the pKi is 7.82.
`Cc1cc(-c2c[nH]c3ncccc23)cc(N[C@H]2CC[C@H](O)CC2)n1` showed a pKi of 7.57.
Consider `Fc1cc(-c2c[nH]c3ncccc23)cc(NC2CCCCC2)n1`, for which the pKi is 8.49.
For the compound `O[C@H]1CC[C@H](Nc2cc(-c3c[nH]c4ncccc34)cc(F)n2)CC1`, the pKi was 8.77.
On the same count and under the same terms, the figure for `N[C@H]1CC[C@H](Nc2cc(-c3c[nH]c4ncccc34)cc(F)n2)CC1` is 8.47.

In a further test the target is Glycogen synthase kinase-3 beta (Homo sapiens, UniProt P49841). The experiment in a line: Inhibition of human recombinant GSK3beta.
Chain of Glycogen synthase kinase-3 beta (P49841 whole entry): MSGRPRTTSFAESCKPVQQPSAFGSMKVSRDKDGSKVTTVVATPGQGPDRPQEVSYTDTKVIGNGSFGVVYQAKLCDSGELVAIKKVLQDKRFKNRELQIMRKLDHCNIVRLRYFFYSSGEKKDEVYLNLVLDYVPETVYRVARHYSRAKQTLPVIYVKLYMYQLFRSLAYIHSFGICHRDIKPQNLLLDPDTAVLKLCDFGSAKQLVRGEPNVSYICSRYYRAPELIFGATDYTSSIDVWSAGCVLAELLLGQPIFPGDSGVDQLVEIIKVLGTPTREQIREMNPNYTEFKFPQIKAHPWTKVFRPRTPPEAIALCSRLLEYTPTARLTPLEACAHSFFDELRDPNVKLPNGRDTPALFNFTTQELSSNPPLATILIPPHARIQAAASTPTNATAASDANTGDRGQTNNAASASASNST
On to `Clc1cc(-c2c[nH]c3ncccc23)cc(NC2CCCCC2)n1`, for which the pKi is 7.24.

In general, pKi refers to the Ki on a negative log10 scale, so that one unit is a factor of ten.

These data come from ChEMBL document CHEMBL2321696, “Azaindole-Based Inhibitors of Cdc7 Kinase: Impact of the Pre-DFG Residue, Val 195” (ACS Med Chem Lett, 2013).
